Measurements: patent publication US20250302832A1, “PYRAZINE DERIVATIVES AND USES THEREOF” (FOGHORN THERAPEUTICS INC., priority 2022, published 2025)

Tests used:
HiBit-BRM fusion protein = target: T1, HiBit-BRM fusion protein (Homo sapiens, UniProt P51531); test: HiBiT-BRM cell-based degradation assay (Nano-Glo HiBiT lytic detection, 24 h); conditions: HeLa cell line expressing HiBiT-BRM; for DC50: read-out: BRM HiBit Degradation IC50
T1 construct: expressed in transfected cells
Procedure, shortened: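 Stable HeLa HiBiT-BRM cells treated 24 h with compounds (10-point 3-fold dilutions, 30 μM final top dose, duplicate). HiBiT levels read by Nano-Glo lytic luminescence; % degradation normalised to DMSO (high control) and 2 μM reference BRM/BRG1 degrader (low control).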

[1] = target: T2, HiBit-BRG1 fusion protein (Homo sapiens, UniProt P51532); test: HiBiT-BRG1 cell-based degradation assay (Nano-Glo HiBiT lytic detection, 24 h); conditions: HeLa cell line expressing HiBit-BRG1 and LgBit; for Dmax: read-out: BRG1 HiBit Degradation Maximum (%); for DC50: read-out: BRMG1 HiBit Degradation IC50
T2 construct: expressed in transfected cells
Procedure, shortened: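 HeLa cells stably expressing HiBiT-BRG1 and LgBiT, 5000 per well, compound-treated 24 h, equilibrated 15 min at room temperature, then lysed with LgBiT-containing Nano-Glo HiBiT lytic reagent and luminescence read. % degradation normalised between DMSO (high control) and 2 μM reference BRM/BRG1 degrader (low control).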

T2 sequence (P51532 whole entry, the tested form may be a part): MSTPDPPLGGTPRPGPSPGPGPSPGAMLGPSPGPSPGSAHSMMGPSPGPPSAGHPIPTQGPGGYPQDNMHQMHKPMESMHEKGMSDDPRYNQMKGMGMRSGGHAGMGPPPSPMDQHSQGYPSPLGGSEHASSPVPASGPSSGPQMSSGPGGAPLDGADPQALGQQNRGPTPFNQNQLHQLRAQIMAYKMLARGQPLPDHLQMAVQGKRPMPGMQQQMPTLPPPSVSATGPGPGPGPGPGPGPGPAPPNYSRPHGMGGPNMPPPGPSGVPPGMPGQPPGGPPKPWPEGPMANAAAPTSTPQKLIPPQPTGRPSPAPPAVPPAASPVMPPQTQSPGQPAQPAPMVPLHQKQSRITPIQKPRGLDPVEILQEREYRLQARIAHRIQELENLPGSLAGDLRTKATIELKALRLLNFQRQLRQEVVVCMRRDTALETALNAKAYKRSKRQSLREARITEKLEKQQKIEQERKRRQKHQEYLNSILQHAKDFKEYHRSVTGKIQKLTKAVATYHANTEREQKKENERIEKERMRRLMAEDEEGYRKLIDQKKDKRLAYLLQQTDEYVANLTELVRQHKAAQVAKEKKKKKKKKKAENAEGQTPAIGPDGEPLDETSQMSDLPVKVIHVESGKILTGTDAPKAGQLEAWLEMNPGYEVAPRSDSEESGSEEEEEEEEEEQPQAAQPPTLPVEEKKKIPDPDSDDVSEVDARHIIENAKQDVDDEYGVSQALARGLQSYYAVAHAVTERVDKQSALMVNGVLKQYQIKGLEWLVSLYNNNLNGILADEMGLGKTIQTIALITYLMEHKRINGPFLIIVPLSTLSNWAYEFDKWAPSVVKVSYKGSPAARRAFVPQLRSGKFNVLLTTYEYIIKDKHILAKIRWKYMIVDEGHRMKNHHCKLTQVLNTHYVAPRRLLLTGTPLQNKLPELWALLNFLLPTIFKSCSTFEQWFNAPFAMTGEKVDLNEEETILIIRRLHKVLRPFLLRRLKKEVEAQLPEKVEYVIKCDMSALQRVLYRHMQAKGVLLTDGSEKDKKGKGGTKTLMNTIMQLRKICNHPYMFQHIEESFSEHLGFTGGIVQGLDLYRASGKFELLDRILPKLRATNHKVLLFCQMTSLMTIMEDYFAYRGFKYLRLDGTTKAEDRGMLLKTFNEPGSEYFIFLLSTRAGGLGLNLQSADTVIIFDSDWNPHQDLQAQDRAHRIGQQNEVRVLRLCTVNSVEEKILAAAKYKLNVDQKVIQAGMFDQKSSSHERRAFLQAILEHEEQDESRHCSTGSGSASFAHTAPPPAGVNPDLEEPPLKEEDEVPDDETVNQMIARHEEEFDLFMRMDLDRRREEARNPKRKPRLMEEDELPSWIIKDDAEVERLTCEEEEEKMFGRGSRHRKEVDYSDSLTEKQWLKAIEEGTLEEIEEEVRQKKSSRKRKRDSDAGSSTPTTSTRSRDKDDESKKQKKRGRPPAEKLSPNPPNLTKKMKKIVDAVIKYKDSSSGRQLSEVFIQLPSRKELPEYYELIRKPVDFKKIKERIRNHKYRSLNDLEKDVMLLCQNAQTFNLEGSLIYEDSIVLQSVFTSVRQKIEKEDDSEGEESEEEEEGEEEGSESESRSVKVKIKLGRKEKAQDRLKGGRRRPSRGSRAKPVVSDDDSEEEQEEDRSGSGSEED
T1 sequence (P51531 whole entry, the tested form may be a part): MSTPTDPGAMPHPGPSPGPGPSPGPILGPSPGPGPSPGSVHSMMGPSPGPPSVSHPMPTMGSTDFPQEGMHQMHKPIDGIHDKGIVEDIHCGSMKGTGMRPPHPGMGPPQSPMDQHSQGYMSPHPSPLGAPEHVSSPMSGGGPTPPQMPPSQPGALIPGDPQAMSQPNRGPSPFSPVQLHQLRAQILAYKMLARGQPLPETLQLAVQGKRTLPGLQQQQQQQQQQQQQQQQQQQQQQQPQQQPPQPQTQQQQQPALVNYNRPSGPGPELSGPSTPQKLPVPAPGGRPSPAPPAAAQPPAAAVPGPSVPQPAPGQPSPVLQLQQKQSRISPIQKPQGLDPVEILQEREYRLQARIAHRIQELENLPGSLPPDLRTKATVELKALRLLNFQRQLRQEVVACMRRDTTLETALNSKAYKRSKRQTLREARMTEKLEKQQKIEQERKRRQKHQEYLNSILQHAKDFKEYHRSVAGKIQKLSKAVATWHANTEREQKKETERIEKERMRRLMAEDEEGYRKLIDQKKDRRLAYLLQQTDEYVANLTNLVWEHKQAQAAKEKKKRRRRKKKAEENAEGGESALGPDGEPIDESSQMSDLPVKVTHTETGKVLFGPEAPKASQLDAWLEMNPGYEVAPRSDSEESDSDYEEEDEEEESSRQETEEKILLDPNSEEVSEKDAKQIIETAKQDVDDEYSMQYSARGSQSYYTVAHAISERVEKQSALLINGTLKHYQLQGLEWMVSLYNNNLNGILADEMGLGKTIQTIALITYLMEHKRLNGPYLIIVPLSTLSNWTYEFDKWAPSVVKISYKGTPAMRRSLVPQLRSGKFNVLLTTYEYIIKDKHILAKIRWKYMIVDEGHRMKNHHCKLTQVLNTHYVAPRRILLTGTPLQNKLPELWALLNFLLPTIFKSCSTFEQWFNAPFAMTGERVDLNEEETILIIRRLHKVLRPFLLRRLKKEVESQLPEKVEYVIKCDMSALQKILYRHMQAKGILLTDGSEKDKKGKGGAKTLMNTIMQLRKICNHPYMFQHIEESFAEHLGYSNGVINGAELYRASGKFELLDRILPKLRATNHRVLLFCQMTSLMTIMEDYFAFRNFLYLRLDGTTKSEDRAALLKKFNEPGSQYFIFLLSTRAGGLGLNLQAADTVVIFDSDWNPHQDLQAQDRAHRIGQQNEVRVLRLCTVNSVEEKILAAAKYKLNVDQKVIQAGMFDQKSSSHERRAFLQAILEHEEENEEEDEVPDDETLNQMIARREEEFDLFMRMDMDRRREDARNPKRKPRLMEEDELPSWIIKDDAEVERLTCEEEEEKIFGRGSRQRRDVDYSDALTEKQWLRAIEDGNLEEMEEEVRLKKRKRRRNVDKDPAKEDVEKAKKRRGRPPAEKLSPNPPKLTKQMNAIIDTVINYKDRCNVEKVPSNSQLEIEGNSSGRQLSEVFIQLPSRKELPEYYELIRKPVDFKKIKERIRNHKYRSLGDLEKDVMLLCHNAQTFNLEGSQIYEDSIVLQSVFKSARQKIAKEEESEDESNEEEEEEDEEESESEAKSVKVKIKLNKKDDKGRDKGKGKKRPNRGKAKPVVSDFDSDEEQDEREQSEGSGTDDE

Row | DC50 (HiBit-BRM fusion protein) | Dmax [1] | DC50 [1] | Structure (SMILES) | BRM HiBit Degradation Maximum (%) (HiBit-BRM fusion protein)
1 | > 10 nM | < 50% |  | CNC(=O)[C@@H]1C[C@@H](O)CN1C(=O)[C@@H](c1cc(N2CC3(CC(c4cc5nnc(-c6ccccc6O)cc5n4C4CCC4)C3)C2)no1)C(C)C [Compound 61, (2S,4R)-1-((R)-2-(3-(6-(5-cyclobutyl-3-(2-hydroxyphenyl)-5H-pyrrolo[3,2-c]pyridazin-6-yl)-2-azaspiro[3.3]heptan-2-yl)isoxazol-5-yl)-3-methylbutanoyl)-4-hydroxy-N-methylpyrrolidine-2-carboxamide] | A (“A” indicates maximum degradation ≥75%)
2 | < 10 nM | > 50% | < 10 nM | Cc1ncsc1-c1ccc([C@H](C)NC(=O)[C@@H]2C[C@@H](O)CN2C(=O)[C@H](C(C)C)n2cc(-c3cnc(N4CC[C@H](c5cc6nnc(-c7ccccc7O)cc6n5C5CC5)C4)nc3)nn2)cc1 [Compound 74, (2S,4R)-1-((S)-2-(4-(2-((S)-3-(5-cyclopropyl-3-(2-hydroxyphenyl)-5H-pyrrolo[3,2-c]pyridazin-6-yl)pyrrolidin-1-yl)pyrimidin-5-yl)-1H-1,2,3-triazol-1-yl)-3-methylbutanoyl)-4-hydroxy-N—((S)-1-(4-(4-methylthiazol-5-yl)phenyl)ethyl)pyrrolidine-2-carboxamide] | A (“A” indicates maximum degradation ≥75%)
3 |  | < 50% |  | Cc1ncsc1-c1ccc([C@H](C)NC(=O)[C@@H]2C[C@@H](O)CN2C(=O)[C@@H](c2cc(OCCN3CC(n4cc(C(F)F)c5nnc(-c6ccccc6O)cc54)C3)no2)C(C)C)cc1 [Compound 32, (2S,4R)-1-((R)-2-(3-(2-(3-(7-(difluoromethyl)-3-(2-hydroxyphenyl)-5H-pyrrolo[3,2-c]pyridazin-5-yl)azetidin-1-yl)ethoxy)isoxazol-5-yl)-3-methylbutanoyl)-4-hydroxy-N—((S)-1-(4-(4-methylthiazol-5-yl)phenyl)ethyl)pyrrolidine-2-carboxamide] | C (“C” indicates maximum degradation <50%)
4 | > 10 nM | < 50% |  | Cc1ncsc1-c1ccc([C@H](C)NC(=O)[C@@H]2C[C@@H](O)CN2C(=O)[C@H](c2cc(-c3cnc(N4CCC(c5cc6nnc(-c7ccccc7O)cc6[nH]5)CC4)nc3)no2)C(C)C)cc1 [Compound 19, (2S,4R)-4-hydroxy-1-[(2S)-2-[3-(2-{4-[3-(2-hydroxyphenyl)-5H-pyrrolo[3,2-c]pyridazin-6-yl]piperidin-1-yl}pyrimidin-5-yl)-1,2-oxazol-5-yl]-3-methylbutanoyl]-N-[(1S)-1-[4-(4-methyl-1,3-thiazol-5-yl)phenyl]ethyl]pyrrolidine-2-carboxamide] | B (“B” indicates maximum degradation ≥50%)
5 | > 10 nM | > 75% | > 10 nM | Cc1ncsc1-c1ccc([C@H](C)NC(=O)[C@@H]2C[C@@H](O)CN2C(=O)[C@@H](c2cc(N3CC[C@H](c4cc5nnc(-c6ccccc6O)cc5n4C4(C)CC4)C3)no2)C(C)C)cc1 [Compound 80, (2S,4R)-4-hydroxy-1-((R)-2-(3-((S)-3-(3-(2-hydroxyphenyl)-5-(1-methylcyclopropyl)-5H-pyrrolo[3,2-c]pyridazin-6-yl)pyrrolidin-1-yl)isoxazol-5-yl)-3-methylbutanoyl)-N-((S)-1-(4-(4-methylthiazol-5-yl)phenyl)ethyl)pyrrolidine-2-carboxamide] | A (“A” indicates maximum degradation ≥75%)
6 | > 10 nM | > 75% | > 10 nM | Cc1ncsc1-c1ccc([C@H](C)NC(=O)[C@@H]2C[C@@H](O)CN2C(=O)[C@@H](c2cc(N3CCC[C@H](c4cc5nnc(-c6ccccc6O)cc5n4C4CC4)C3)no2)C(C)C)cc1 [Compound 98, (2S,4R)-1-((R)-2-(3-((S)-3-(5-cyclopropyl-3-(2-hydroxyphenyl)-5H-pyrrolo[3,2-c]pyridazin-6-yl)piperidin-1-yl)isoxazol-5-yl)-3-methylbutanoyl)-4-hydroxy-N-((S)-1-(4-(4-methylthiazol-5-yl)phenyl)ethyl)pyrrolidine-2-carboxamide] | A (“A” indicates maximum degradation ≥75%)
